ChEMBL document CHEMBL1201862, “PubChem BioAssay data set” (2004)
Activity calls are given as the source filed them.

Legend:
[1] = NIH:OVCAR-3 ovarian cancer cell cytotoxicity, dose response, PAX8 inhibitor project, plate reader, dry powder samples (AID 743044); format: functional, cell-based
[2] = target: Paired box protein Pax-8 (Homo sapiens, UniProt Q06710); test: inhibitors of PAX8-driven TPO luciferase reporter, dose response, RMG-I cells, cherry-pick (AID 687027); format: functional, cell-based;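 further: luciferase reporter driven by Pax8 target thyroperoxidase promoter measured by SteadyGlo luminescence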
[3] = cytotoxicity in HEK-293T cells, dose response, cytotoxicity control for TCR NF-kB inhibitor project, luminescence, T-cell screen hits (AID 489026); format: functional, cell-based;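 further: cells exposed to compound about 14 hours before the viability readout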
[4] = P. falciparum 3D7-ScDHODH growth inhibitors, dose response, SYBR Green, dry powder samples (AID 1159570); format: functional, cell-based;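 further: parasite growth measured after 72 hours of compound exposure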
[5] = P. falciparum ATP4 D1247Y mutant growth inhibitors, dose response, NITD609-resistant line, SYBR Green, dry powder (AID 1159571); format: functional, cell-based;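 further: parasites synchronized at ring stage by sorbitol before testing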
[6] = P. falciparum Dd2 growth inhibitors, dose response, SYBR Green, dry powder samples (AID 1159566); format: functional, cell-based;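 further: potency for growth inhibition with lower SYBR green DNA signal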
[7] = HepG2 cell cytotoxicity, dose response, cytotoxicity control, plate reader, dry powder samples (AID 1159569); format: functional, cell-based;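 further: inhibitor potency with signal falling toward the positive control level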
[8] = P. falciparum Dd2 growth inhibitors, dose response, SYBR Green, cherry-picked samples (AID 1159567); format: functional, cell-based
[9] = target: T1, Short transient receptor potential channel 4 (Mus musculus, UniProt Q9QUQ5); test: mouse TRPC4 channel activators, dose response, cell-based, HEK293 TRPC4/mu-opioid, Fluo-4 calcium (AID 434937); format: functional
T1 sequence (Q9QUQ5 whole entry): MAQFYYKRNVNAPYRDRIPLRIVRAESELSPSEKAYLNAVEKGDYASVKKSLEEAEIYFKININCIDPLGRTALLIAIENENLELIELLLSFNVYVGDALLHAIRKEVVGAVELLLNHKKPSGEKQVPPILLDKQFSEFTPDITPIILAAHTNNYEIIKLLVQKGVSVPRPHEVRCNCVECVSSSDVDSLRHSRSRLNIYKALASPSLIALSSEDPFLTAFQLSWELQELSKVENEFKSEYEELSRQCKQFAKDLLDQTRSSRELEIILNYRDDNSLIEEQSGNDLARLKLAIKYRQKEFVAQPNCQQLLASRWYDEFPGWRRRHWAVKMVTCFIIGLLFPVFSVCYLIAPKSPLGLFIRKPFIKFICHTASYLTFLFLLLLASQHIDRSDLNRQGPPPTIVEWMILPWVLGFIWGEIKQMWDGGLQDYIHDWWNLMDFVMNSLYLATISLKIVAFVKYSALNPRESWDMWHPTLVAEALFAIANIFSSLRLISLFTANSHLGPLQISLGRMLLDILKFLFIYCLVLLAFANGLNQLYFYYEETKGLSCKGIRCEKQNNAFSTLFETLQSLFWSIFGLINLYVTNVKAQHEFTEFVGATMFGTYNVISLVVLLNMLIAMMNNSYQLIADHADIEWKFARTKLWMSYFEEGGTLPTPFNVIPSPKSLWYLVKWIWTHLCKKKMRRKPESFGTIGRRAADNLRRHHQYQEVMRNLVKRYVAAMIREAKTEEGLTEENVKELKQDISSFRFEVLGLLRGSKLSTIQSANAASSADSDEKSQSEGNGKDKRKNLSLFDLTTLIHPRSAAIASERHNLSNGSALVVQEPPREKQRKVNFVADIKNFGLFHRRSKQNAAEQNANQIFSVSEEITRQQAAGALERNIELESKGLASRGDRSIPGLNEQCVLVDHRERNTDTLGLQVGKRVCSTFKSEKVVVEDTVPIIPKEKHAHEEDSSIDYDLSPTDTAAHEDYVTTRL

[10] = target: Voltage-dependent T-type calcium channel subunit alpha-1H (Homo sapiens, UniProt O95180); format: functional;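 further: channel activity triggered by adding a high calcium stimulation buffer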
[11] = A cytotoxicity screen of small molecule inhibitors of the PhoP region in Salmonella typhi identified in the primary screen. [Related pubchem assays: 1850, 1864, 1985 ]; format: functional
[12] = target: T2, Estrogen receptor (Homo sapiens, UniProt P03372);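 further: potency for inhibiting coactivator peptide recruitment to the receptor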
T2 sequence (P03372 whole entry): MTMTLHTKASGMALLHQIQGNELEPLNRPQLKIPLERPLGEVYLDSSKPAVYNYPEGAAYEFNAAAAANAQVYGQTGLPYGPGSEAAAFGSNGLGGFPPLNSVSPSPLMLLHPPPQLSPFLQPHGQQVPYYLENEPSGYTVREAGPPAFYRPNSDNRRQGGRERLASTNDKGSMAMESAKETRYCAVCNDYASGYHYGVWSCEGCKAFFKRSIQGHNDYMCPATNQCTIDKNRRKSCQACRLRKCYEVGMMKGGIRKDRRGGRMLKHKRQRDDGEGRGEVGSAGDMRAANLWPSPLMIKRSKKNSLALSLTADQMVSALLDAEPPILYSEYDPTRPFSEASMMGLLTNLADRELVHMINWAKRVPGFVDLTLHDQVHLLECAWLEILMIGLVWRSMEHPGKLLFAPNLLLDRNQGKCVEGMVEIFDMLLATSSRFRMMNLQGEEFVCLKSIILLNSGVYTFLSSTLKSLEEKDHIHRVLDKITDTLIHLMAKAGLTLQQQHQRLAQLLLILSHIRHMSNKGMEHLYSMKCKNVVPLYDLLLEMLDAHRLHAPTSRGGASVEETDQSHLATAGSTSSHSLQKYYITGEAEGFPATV

[13] = test system: H9c2; test: cells; format: functional, cell-based; conditions: Rattus norvegicus, H9c2, Myocardium;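 further: confirmatory concentration-response retest of ultra-high-throughput screening hits for modulation of myocardial damage; cell death induced by hydrogen peroxide oxidative stress; compound pretreatment for 60 min then peroxide exposure for 2 h; potency is for protecting the cells against peroxide damage rather than for killing them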
[14] = test system: Streptococcus; test: Group A Streptococcus viability loss, dose response, counter-screen for streptokinase expression inhibitor project, luminescence, BacTiterGlo (AID 1915); format: functional, organism-based;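 further: potency for reduction of bacterial viability or growth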
[15] = test system: Streptococcus sp. 'group A'; test: growth inhibition of control SK(-) GAS strain, dose response, counter-screen for streptokinase expression inhibitor project, luminescence, kanamycin, BacTiterGlo, confirmation (AID 1900); format: functional, organism-based
[16] = NIH-3T3 fibroblast cytotoxicity, dose response, cytotoxicity control, cell-based, fluorescence, Alamar Blue, secondary assay (AID 2327); format: functional;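 further: NIH-3T3 mouse fibroblasts cultured with fluconazole at 8 µg/mL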
[17] = C. albicans growth with fluconazole, confirmation, fluorescence, retest (AID 2467); format: functional, cell-based
[18] = target: Cytochrome P450 2D6 (Homo sapiens, UniProt P10635);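 further: CYP2D6 member of a cytochrome P450 panel assay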
[19] = cytotoxicity in HPDE-C7 cells, cell-based, fluorescence, HTS (AID 430); format: functional; conditions: Homo sapiens
[20] = cytotoxicity in KRAS-transformed pancreatic duct cells, primary screen, cell-based, fluorescence, HTS (AID 431); format: functional; conditions: Homo sapiens;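 further: cell line used: HPDE-C7K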

Chain of Voltage-dependent T-type calcium channel subunit alpha-1H (O95180 whole entry): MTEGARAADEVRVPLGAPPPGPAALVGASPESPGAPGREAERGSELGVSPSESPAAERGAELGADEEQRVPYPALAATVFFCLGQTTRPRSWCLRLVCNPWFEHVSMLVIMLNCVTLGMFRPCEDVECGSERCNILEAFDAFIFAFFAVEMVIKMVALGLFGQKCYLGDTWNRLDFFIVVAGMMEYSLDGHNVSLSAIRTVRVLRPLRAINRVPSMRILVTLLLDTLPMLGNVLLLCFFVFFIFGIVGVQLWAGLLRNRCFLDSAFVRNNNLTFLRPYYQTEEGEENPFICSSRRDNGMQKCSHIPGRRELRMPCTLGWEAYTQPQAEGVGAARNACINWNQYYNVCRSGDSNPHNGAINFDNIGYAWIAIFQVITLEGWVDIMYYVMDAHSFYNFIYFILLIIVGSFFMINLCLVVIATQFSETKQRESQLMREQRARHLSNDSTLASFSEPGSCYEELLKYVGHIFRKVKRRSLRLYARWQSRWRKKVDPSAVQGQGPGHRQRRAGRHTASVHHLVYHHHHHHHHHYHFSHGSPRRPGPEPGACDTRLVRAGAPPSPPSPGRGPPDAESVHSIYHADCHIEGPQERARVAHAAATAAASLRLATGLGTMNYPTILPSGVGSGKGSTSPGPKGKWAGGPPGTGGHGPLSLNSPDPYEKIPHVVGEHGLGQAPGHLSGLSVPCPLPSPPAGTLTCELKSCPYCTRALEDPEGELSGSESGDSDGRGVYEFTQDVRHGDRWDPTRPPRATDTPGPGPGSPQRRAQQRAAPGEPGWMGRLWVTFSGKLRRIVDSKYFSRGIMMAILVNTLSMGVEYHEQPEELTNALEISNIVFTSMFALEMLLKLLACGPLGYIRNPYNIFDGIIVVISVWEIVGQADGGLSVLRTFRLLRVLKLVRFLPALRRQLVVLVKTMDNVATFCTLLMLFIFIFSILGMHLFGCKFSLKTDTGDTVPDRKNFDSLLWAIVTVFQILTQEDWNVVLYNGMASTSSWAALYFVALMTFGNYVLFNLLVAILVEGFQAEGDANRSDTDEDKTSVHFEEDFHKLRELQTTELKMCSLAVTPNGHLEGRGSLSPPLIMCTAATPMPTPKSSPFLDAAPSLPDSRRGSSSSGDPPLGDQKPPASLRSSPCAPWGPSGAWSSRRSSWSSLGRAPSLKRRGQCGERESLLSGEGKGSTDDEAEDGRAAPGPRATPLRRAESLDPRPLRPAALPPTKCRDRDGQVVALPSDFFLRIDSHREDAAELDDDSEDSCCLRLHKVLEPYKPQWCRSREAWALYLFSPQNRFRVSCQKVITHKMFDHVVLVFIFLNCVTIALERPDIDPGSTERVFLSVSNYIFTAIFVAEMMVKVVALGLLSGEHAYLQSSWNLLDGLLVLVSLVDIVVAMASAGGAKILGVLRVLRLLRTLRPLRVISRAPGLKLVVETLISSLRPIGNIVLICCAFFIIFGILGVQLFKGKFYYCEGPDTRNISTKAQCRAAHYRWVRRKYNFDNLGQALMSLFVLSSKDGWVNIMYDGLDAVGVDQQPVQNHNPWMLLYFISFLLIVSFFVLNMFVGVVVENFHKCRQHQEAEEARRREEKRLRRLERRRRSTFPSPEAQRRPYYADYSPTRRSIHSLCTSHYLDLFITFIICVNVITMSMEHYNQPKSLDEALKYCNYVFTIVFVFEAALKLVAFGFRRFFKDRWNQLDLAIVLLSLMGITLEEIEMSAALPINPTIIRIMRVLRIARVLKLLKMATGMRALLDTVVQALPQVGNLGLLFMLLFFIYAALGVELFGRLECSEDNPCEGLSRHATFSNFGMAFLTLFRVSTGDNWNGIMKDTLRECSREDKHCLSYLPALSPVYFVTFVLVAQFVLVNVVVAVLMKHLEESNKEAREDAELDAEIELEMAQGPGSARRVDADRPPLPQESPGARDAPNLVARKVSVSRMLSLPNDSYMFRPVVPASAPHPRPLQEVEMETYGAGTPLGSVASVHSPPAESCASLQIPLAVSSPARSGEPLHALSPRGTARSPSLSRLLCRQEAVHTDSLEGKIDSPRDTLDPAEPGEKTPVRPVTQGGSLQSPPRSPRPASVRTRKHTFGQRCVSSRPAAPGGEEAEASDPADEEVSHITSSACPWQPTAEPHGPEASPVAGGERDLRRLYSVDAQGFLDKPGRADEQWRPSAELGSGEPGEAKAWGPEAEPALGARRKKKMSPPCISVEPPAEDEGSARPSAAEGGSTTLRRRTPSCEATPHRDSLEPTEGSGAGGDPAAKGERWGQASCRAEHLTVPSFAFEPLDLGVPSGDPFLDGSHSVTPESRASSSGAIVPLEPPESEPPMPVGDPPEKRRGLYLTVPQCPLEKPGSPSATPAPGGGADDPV
Chain of Paired box protein Pax-8 (Q06710 whole entry): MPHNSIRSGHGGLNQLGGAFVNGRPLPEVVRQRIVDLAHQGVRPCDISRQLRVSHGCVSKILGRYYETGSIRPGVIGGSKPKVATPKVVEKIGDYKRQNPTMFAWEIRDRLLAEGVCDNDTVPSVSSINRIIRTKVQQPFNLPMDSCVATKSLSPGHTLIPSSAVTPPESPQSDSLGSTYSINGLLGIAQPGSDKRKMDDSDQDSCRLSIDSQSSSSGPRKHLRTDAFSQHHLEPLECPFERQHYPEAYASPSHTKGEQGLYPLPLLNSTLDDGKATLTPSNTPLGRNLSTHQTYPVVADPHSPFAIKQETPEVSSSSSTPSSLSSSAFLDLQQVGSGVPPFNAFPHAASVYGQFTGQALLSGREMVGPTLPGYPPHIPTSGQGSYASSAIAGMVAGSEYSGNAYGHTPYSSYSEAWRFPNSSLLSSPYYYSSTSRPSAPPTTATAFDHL
Chain of Cytochrome P450 2D6 (P10635 whole entry): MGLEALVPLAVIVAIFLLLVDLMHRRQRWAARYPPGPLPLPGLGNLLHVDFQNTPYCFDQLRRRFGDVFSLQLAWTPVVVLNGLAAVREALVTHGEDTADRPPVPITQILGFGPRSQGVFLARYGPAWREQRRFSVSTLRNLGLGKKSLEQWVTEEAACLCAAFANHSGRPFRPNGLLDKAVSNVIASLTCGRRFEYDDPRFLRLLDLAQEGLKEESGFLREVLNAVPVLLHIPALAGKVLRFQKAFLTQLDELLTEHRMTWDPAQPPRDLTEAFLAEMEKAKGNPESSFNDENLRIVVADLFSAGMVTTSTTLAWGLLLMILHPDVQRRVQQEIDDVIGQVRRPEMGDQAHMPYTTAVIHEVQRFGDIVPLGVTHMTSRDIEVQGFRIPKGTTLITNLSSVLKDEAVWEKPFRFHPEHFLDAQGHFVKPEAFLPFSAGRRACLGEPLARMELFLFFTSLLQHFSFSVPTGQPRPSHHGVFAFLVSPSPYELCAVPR

## C[C@@H]1CCCCO[C@@H](CN(C)S(=O)(=O)c2ccc(Cl)cc2)[C@H](C)CN([C@@H](C)CO)C(=O)c2cc(N(C)C)ccc2O1
[1]
  AC50: 28.3 µM (active)
[2]
  AC50: 3.28 µM (active)

## C[C@@H]1CCCCO[C@@H](CN(C)Cc2ccc(Cl)c(Cl)c2)[C@H](C)CN([C@@H](C)CO)C(=O)c2cc(NC(=O)Nc3ccc(C(F)(F)F)cc3)ccc2O1
[1]
  AC50: 29.6 µM (active)
[2]
  AC50: 5.08 µM (active)

## Cc1cc(-c2ccc(S(=O)(=O)N(C)c3ccc(C)c(C)c3)s2)on1
[3]
  IC50: > 80 µM (inactive)

## COc1ccc(C#Cc2ccc3c(c2)[C@H]2[C@H](CCN2Cc2ccncc2)[C@H](CO)N3)cc1
[4]
  AC50: 1.18 µM (active)
[5]
  AC50: 1.11 µM (active)
[6]
  AC50: 0.922 µM (active)
[7]
  AC50: 65.7 µM (active)
[8]
  AC50: 1.19 µM (active)

## COc1ccc(C(=O)C2CCCN(Cc3ccc(Sc4nncn4C)o3)C2)cc1F (configuration not stated)
[9]
  EC50: 3.35 µM (active)

## CC(C)(C)n1nnnc1C(c1cccs1)N1CCCc2ccccc21 (configuration not stated)
[10]
  EC50: 8.88 µM (active)

## CCN1CCN(c2nc3ccccc3nc2C(C#N)S(=O)(=O)c2ccc(C)cc2)CC1 (configuration not stated)
[11]
  EC50: > 50 µM (active)

## COc1nnc(-c2ccc(C)c(S(=O)(=O)NCCO)c2)c2ccccc12
[12]
  IC50: > 50 µM (not active)
[13]
  IC50: > 79 µM (inactive)

## O=C(CCc1ccccc1)NNC(=S)NC(=O)c1ccc(Cl)cc1
[14]
  EC50: 6.45 µM (active)
[15]
  EC50: 0.335 µM (active)
[16]
  EC50: > 150 µM (inconclusive)
[9]
  EC50: 5.31 µM (active)
[17]
  EC50: 2.16 µM (active)

## c1cnc2nc(-c3ccc4c(c3)OCO4)cn2c1
[11]
  EC50: > 50 µM (active)

## C[C@H](CO)N1C[C@H](C)[C@@H](CN(C)C(=O)C2CCCCC2)Oc2ncc(/C=C/c3ccccc3)cc2C1=O
[4]
  AC50: 0.608 µM (active)
[5]
  AC50: 0.451 µM (active)
[6]
  AC50: 0.35 µM (active)
[7]
  AC50: 50.2 µM (active)
[8]
  AC50: 0.658 µM (active)

## COc1ccc(CCN(C(=O)C(F)(F)F)C(C(=O)NC2CCCC2)c2cccs2)cc1 (configuration not stated)
[18]
  AC50: 25.1 µM (inconclusive)
[11]
  EC50: > 50 µM (active)

## O=C(OCn1nnc2ccccc2c1=O)c1cn(-c2ccccc2)nc1-c1cccnc1
[12]
  IC50: > 50 µM (not active)

## COc1cccc(-c2nc(NCc3ccco3)c3ccccc3n2)c1O
[19]
  EC50: > 20 µM (not active)
[20]
  EC50: 1.11 µM (active)

## O=C(COc1ccc(Cl)cc1Cl)Nc1nc2n(n1)C(c1ccccc1)CC(=O)N2 (configuration not stated)
[10]
  EC50: 1.98 µM (active)
